Assay results published in PubChem BioAssay (NCI).
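Step 1: Grow cells in 96-well plates. Step 2: Expose to compound for 48 hours at 5 concentrations. Step 3: Interpolate endpoints linearly; if unreached, use highest concentration. The concentration for full growth arrest is given as TGI.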

Experiments:
Experiment in all cases: inhibition of tumour cell growth, NCI panel, 48 h
HT29 colon = tested on: HT29 colon
MALME-3M melanoma = tested on: MALME-3M melanoma
LXFL 529 NSCLC = tested on: LXFL 529 NSCLC
NCI-H226 lung = tested on: NCI-H226 lung
SK-MEL-5 melanoma = tested on: SK-MEL-5 melanoma
RXF 393 renal = tested on: RXF 393 renal
SF-539 CNS = tested on: SF-539 CNS
HOP-62 NSCLC = tested on: HOP-62 NSCLC
A498 renal = tested on: A498 renal
HOP-92 NSCLC = tested on: HOP-92 NSCLC
SK-OV-3 ovarian = tested on: SK-OV-3 ovarian
OVCAR-3 ovarian = tested on: OVCAR-3 ovarian
NCI-H522 lung = tested on: NCI-H522 lung
OVCAR-8 ovarian = tested on: OVCAR-8 ovarian
A549 NSCLC = tested on: A549 NSCLC
HCT-116 colon = tested on: HCT-116 colon
IGROV1 ovarian = tested on: IGROV1 ovarian
M19-MEL melanoma = tested on: M19-MEL melanoma
786-0 renal = tested on: 786-0 renal
DLD-1 colon = tested on: DLD-1 colon
UACC-62 melanoma = tested on: UACC-62 melanoma
SK-MEL-28 melanoma = tested on: SK-MEL-28 melanoma
K-562 leukemia = tested on: K-562 leukemia
HOP-18 NSCLC = tested on: HOP-18 NSCLC
U251 CNS = tested on: U251 CNS
SN12C renal = tested on: SN12C renal
RXF-631 renal = tested on: RXF-631 renal
RPMI-8226 leukemia = tested on: RPMI-8226 leukemia
SNB-75 CNS = tested on: SNB-75 CNS
HCC-2998 colon = tested on: HCC-2998 colon
SK-MEL-2 melanoma = tested on: SK-MEL-2 melanoma
EKVX NSCLC = tested on: EKVX NSCLC
NCI-H23 lung = tested on: NCI-H23 lung
SF-268 CNS = tested on: SF-268 CNS
KM12 colon = tested on: KM12 colon
TK-10 renal = tested on: TK-10 renal
CAKI-1 renal = tested on: CAKI-1 renal
DMS 273 small cell lung = tested on: DMS 273 small cell lung
UACC-257 melanoma = tested on: UACC-257 melanoma
SF-295 CNS = tested on: SF-295 CNS
ACHN renal = tested on: ACHN renal
MOLT-4 leukemia = tested on: MOLT-4 leukemia
NCI-H460 lung = tested on: NCI-H460 lung
M14 melanoma = tested on: M14 melanoma
UO-31 renal = tested on: UO-31 renal
COLO 205 colon = tested on: COLO 205 colon
SNB-19 CNS = tested on: SNB-19 CNS
LOX IMVI melanoma = tested on: LOX IMVI melanoma
HCT-15 colon = tested on: HCT-15 colon
KM20L2 colon = tested on: KM20L2 colon
DMS 114 small cell lung = tested on: DMS 114 small cell lung
HL-60(TB) leukemia = tested on: HL-60(TB) leukemia
OVCAR-5 ovarian = tested on: OVCAR-5 ovarian
OVCAR-4 ovarian = tested on: OVCAR-4 ovarian
SW-620 colon = tested on: SW-620 colon
SR leukemia = tested on: SR leukemia
CCRF-CEM leukemia = tested on: CCRF-CEM leukemia
SNB-78 CNS = tested on: SNB-78 CNS

Measured: TGI

CN(C)C(=S)OC(Cn1cncn1)c1ccc(Cl)cc1Cl (stereo not drawn)
not listed: SR leukemia | CCRF-CEM leukemia | SNB-78 CNS
> 100 µM: all other assays above

COc1ccc(N2C(=O)/C(=C/c3ccc(N(CCC#N)CCC#N)cc3C)N=C2/C=C\c2ccccc2)cc1
56.9 µM: SF-539 CNS
92 µM: COLO 205 colon
69.6 µM: HOP-62 NSCLC
75 µM: UO-31 renal
60.7 µM: UACC-62 melanoma
40 µM: KM20L2 colon
not listed: RXF 393 renal | A498 renal | HCC-2998 colon | EKVX NSCLC | DMS 273 small cell lung
> 100 µM: all other assays above
